Measurements taken from patent US11839613B2, “Pyrimidine derivatives as PGE2 receptor modulators” (IDORSIA PHARMACEUTICALS LTD, priority 2017, dated 2023).

What was measured:
PTGER4 (EP4) = PTGER4 (EP4) (Homo sapiens (Human), UniProt P35408); assay: cell-based
PTGER2 (EP2) = PTGER2 (EP2) (Homo sapiens (Human), UniProt P43116); assay: hEP2 b-arrestin assay (PathHunter HEK 293 PTGER2 b-arrestin cells); assay type: cell-based; conditions: antagonistic activity, beta-arrestin assay; read-out: hEP2 b-arr IC50
Method: Plate is pre-incubated 15 minutes at 37° C. Then five microliters of PGE2 (final conc. 5 μM) are transferred into the assay plate. Plate is incubated 120 minutes at 37° C.
(each concentration is measured in duplicate)

Sequence of PTGER4 (EP4) (P35408 whole entry): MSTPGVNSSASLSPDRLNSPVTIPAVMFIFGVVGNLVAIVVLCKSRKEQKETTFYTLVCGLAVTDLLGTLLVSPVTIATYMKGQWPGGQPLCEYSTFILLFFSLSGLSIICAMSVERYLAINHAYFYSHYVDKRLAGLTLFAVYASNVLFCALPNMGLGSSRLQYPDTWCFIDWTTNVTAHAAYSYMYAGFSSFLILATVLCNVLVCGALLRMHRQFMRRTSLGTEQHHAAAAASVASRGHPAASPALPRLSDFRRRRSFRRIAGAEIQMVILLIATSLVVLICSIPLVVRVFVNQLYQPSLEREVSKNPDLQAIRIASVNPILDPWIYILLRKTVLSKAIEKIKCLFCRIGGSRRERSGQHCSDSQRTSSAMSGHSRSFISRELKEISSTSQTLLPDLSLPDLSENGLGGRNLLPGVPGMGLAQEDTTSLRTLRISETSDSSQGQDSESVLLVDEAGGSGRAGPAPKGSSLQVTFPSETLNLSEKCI
Sequence of PTGER2 (EP2) (P43116 whole entry): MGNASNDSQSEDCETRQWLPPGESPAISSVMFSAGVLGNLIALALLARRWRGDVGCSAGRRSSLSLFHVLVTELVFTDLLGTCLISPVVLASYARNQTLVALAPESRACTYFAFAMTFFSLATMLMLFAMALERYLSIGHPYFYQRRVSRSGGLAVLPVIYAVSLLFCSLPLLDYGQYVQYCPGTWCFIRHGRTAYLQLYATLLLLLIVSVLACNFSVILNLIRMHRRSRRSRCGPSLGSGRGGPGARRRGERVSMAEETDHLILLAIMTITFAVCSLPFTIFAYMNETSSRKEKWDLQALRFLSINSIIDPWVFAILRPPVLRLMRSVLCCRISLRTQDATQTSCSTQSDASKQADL

Row | IC50 (PTGER4 (EP4)) [nM] | IC50 (PTGER2 (EP2)) [nM] | SMILES
1 | 356 | 29 | Cc1c(CCNc2cc(-c3ccc(CC(=O)O)c(OC(F)(F)F)c3)ncn2)ccc2c1OCCO2 [Example 509, (4-{6-[2-(5-Methyl-2,3-dihydro-benzo[1,4]dioxin-6-yl)-ethylamino]-pyrimidin-4-yl}-2-trifluoromethoxy-phenyl)-acetic acid]
2 | 99 | 685 | COC(=O)c1ccc(-c2cc(NCCc3cc(F)c4sccc4c3)ncn2)cc1OC1CC1 [Example 538, 2-Cyclopropoxy-4-{6-[2-(7-fluoro-benzo[b]thiophen-5-yl)-ethylamino]-pyrimidin-4-yl}-benzoic acid methyl ester]
3 | 452 | 851 | Cc1cc(-c2cc(NCCc3cc(F)c4sccc4c3)ncn2)ccc1CC(=O)O [Example 544, (4-{6-[2-(7-Fluoro-benzo[b]thiophen-5-yl)-ethylamino]-pyrimidin-4-yl}-2-methyl-phenyl)-acetic acid]
4 | 46 | 9 | COc1cc2c(c(C)c1CCNc1cc(-c3ccc(CC(=O)O)c(OC(C)C)c3)ncn1)OCCO2 [Example 426, (2-Isopropoxy-4-{6-[2-(7-methoxy-5-methyl-2,3-dihydro-benzo[1,4]dioxin-6-yl)-ethylamino]-pyrimidin-4-yl}-phenyl)-acetic acid]
5 | 166 | 980 | Cc1cc(-c2cc(NCCc3cc(F)c4sccc4c3)ncn2)cc(Cl)c1CC(=O)O [Example 546, (2-Chloro-4-{6-[2-(7-fluoro-benzo[b]thiophen-5-yl)-ethylamino]-pyrimidin-4-yl}-6-methyl-phenyl)-acetic acid]
6 | 53 | 211 | CCSc1cc(-c2cc(NCCc3cc(F)c4sccc4c3)ncn2)ccc1C(=O)O [Example 533, 2-Ethylsulfanyl-4-{6-[2-(7-fluoro-benzo[b]thiophen-5-yl)-ethylamino]-pyrimidin-4-yl}-benzoic acid]
7 | 197 | 325 | CCOc1cc(-c2cc(NCCc3cc(F)c4sccc4c3)ncn2)ccc1C(=O)NC [Example 462, 2-Ethoxy-4-{6-[2-(7-fluoro-benzo[b]thiophen-5-yl)-ethylamino]-pyrimidin-4-yl}-N-methyl-benzamide]
8 | 167 | 108 | CCCc1cc(-c2cc(NCCc3ccc4c(c3C)OCCO4)ncn2)ccc1CC(=O)O [Example 504, (4-{6-[2-(5-Methyl-2,3-dihydro-benzo[1,4]dioxin-6-yl)-ethylamino]-pyrimidin-4-yl}-2-propyl-phenyl)-acetic acid]
9 | 295 | 933 | CCCn1cc(-c2cc(NCCc3cc(F)c4sccc4c3)ncn2)cc1C(=O)O [Example 548, 4-{6-[2-(7-Fluoro-benzo[b]thiophen-5-yl)-ethylamino]-pyrimidin-4-yl}-1-propyl-1H-pyrrole-2-carboxylic acid]
10 | 158 | 345 | CCCOc1cc(-c2cc(NCCc3ccc4sccc4c3)ncn2)ccc1CC(=O)O [Example 479, {4-[6-(2-Benzo[b]thiophen-5-yl-ethylamino)-pyrimidin-4-yl]-2-propoxy-phenyl}-acetic acid]
11 | 31 | 97 | COc1cc2c(cc1CCNc1cc(-c3ccc(CC(=O)O)c(CC(C)C)c3)ncn1)OCCO2 [Example 411, (2-Isobutyl-4-{6-[2-(7-methoxy-2,3-dihydro-benzo[1,4]dioxin-6-yl)-ethylamino]-pyrimidin-4-yl}-phenyl)-acetic acid]
12 | 264 | 255 | CCOc1cc(-c2cc(NCCc3ccc4ccccc4c3C)ncn2)ccc1Cc1noc(=S)[nH]1 [Example 567, 3-(2-Ethoxy-4-{6-[2-(1-methyl-naphthalen-2-yl)-ethylamino]-pyrimidin-4-yl}-benzyl)-[1,2,4]oxadiazole-5(4H)-thione]
13 | 49 | 519 | COc1cc(-c2cc(NCCc3cc(F)c4sccc4c3)ncn2)ccc1OCCC(=O)O [Example 438, 3-(4-{6-[2-(7-Fluoro-benzo[b]thiophen-5-yl)-ethylamino]-pyrimidin-4-yl}-2-methoxy-phenoxy)-propionic acid]
14 | 134 | 476 | COc1cc(-c2cc(NCCc3cc(F)c4sccc4c3)ncn2)ccc1CCC(=O)O [Example 560, 3-(4-{6-[2-(7-Fluoro-benzo[b]thiophen-5-yl)-ethylamino]-pyrimidin-4-yl}-2-methoxy-phenyl)-propionic acid]
15 | 288 | 108 | CCc1cc(-c2cc(NCCc3ccc4ccccc4c3C)ncn2)ccc1C(=O)O [Example 517, 2-Ethyl-4-{6-[2-(1-methyl-naphthalen-2-yl)-ethylamino]-pyrimidin-4-yl}-benzoic acid]
16 | 236 | 683 | CCCc1cc(-c2cc(NCCc3cc(F)c4sccc4c3)ncn2)ccc1C(=O)NCC(C)(C)O [Example 459, 4-{6-[2-(7-Fluoro-benzo[b]thiophen-5-yl)-ethylamino]-pyrimidin-4-yl}-N-(2-hydroxy-2-methyl-propyl)-2-propyl-benzamide]
17 | 748 | 85 | CCOc1cc(-c2cc(NCCc3ccc4c(c3C)OCCO4)ncn2)ccc1C(=O)O [Example 508, 2-Ethoxy-4-{6-[2-(5-methyl-2,3-dihydro-benzo[1,4]dioxin-6-yl)-ethylamino]-pyrimidin-4-yl}-benzoic acid]
18 | 246 | 680 | CCOc1cc(-c2cc(NCCc3ccc4ccsc4c3C)ncn2)ccc1CC(=O)O [Example 472, (2-Ethoxy-4-{6-[2-(7-methyl-benzo[b]thiophen-6-yl)-ethylamino]-pyrimidin-4-yl}-phenyl)-acetic acid]
19 | 190 | 560 | O=C(O)c1coc2cc(-c3cc(NCCc4cc(F)c5sccc5c4)ncn3)ccc12 [Example 549, 6-{6-[2-(7-Fluoro-benzo[b]thiophen-5-yl)-ethylamino]-pyrimidin-4-yl}-benzofuran-3-carboxylic acid]
20 | 198 | 513 | CCCc1cc(-c2cc(NCCc3cc4c(cc3F)OCCO4)ncn2)ccc1CC(=O)O [Example 528, (4-{6-[2-(7-Fluoro-2,3-dihydro-benzo[1,4]dioxin-6-yl)-ethylamino]-pyrimidin-4-yl}-2-propyl-phenyl)-acetic acid]
21 | 105 | 438 | CCOc1cc(-c2cc(NCCc3ccc4sccc4c3)ncn2)cc(F)c1CC(=O)O [Example 370, {4-[6-(2-Benzo[b]thiophen-5-yl-ethylamino)-pyrimidin-4-yl]-2-ethoxy-6-fluoro-phenyl}-acetic acid]
22 | 114 | 331 | CCCc1cc(-c2cc(NCCc3cc4c(cc3OC)OCCO4)ncn2)ccc1C(C)C(=O)O (racemic) [Example 401, rac-2-(4-{6-[2-(7-Methoxy-2,3-dihydro-benzo[1,4]dioxin-6-yl)-ethylamino]-pyrimidin-4-yl]-2-propyl-phenyl)-propionic acid]
23 | 2 | 7 | CCOc1cc(-c2cc(NCCc3ccc4sccc4c3F)ncn2)sc1C(=O)O [Example 367, 3-Ethoxy-5-{6-[2-(4-fluoro-benzo[b]thiophen-5-yl)-ethylamino]-pyrimidin-4-yl}-thiophene-2-carboxylic acid]
24 | 149 | 77 | CCOc1cc(-c2cc(NCCc3ccc4sccc4c3F)ncn2)ccc1C(=O)O [Example 365, 2-Ethoxy-4-{6-[2-(4-fluoro-benzo[b]thiophen-5-yl)-ethylamino]-pyrimidin-4-yl}-benzoic acid]
25 | 161 | 207 | CCCc1cc(-c2cc(NCCc3cc(F)c4sccc4c3)ncn2)ccc1C(=O)NCCO [Example 460, 4-{6-[2-(7-Fluoro-benzo[b]thiophen-5-yl)-ethylamino]-pyrimidin-4-yl}-N-(2-hydroxy-ethyl)-2-propyl-benzamide]
26 | 41 | 7 | COc1cc2c(c(C)c1CCNc1cc(-c3ccc(CC(=O)O)c(OC(F)(F)F)c3)ncn1)OCCO2 [Example 428, (4-{6-[2-(7-Methoxy-5-methyl-2,3-dihydro-benzo[1,4]dioxin-6-yl)-ethylamino]-pyrimidin-4-yl}-2-trifluoromethoxy-phenyl)-acetic acid]
27 | 29 | 107 | COc1cc2ccccc2c(C)c1CCNc1cc(-c2ccc(CC(=O)O)c(OC(F)F)c2)ncn1 [Example 443, (2-Difluoromethoxy-4-{6-[2-(3-methoxy-1-methyl-naphthalen-2-yl)-ethylamino]-pyrimidin-4-yl}-phenyl)-acetic acid]
28 | 332 | 172 | CCOc1cc(-c2cc(NCCc3ccc4c(c3C)OCCO4)ncn2)ccc1CC(=O)O [Example 506, (2-Ethoxy-4-{6-[2-(5-methyl-2,3-dihydro-benzo[1,4]dioxin-6-yl)-ethylamino]-pyrimidin-4-yl}-phenyl)-acetic acid]
29 | 27 | 82 | COc1cc2c(c(F)c1CCNc1cc(-c3ccc(CC(=O)O)c(OC(F)F)c3)ncn1)OCCO2 [Example 442, (2-Difluoromethoxy-4-{6-[2-(5-fluoro-7-methoxy-2,3-dihydro-benzo[1,4]dioxin-6-yl)-ethylamino]-pyrimidin-4-yl}-phenyl)-acetic acid]
30 | 81 | 160 | COc1cc(-c2cc(NCCc3ccc4sccc4c3F)ncn2)ccc1CC(=O)O [Example 382, (4-{6-[2-(4-Fluoro-benzo[b]thiophen-5-yl)-ethylamino]-pyrimidin-4-yl}-2-methoxy-phenyl)-acetic acid]

Row | SMILES | IC50 (PTGER4 (EP4)) [nM] | IC50 (PTGER2 (EP2)) [nM]
31 | CCOc1cc(-c2cc(NCCc3c(OC)cc4c(c3F)OCCO4)ncn2)ccc1C(=O)O [Example 435, 2-Ethoxy-4-{6-[2-(5-fluoro-7-methoxy-2,3-dihydro-benzo[1,4]dioxin-6-yl)-ethylamino]-pyrimidin-4-yl}-benzoic acid] | 110 | 46
